From ChEMBL document CHEMBL1201862, “PubChem BioAssay data set” (2004)
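Method: 48-hour compound exposure of cells in 96-well plates, five concentrations, linear interpolation of endpoints. GI50: concentration for 50% inhibition of growth.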 Activity calls are given as the source filed them. Rule as the data show it: active = GI50 up to about 1.1 µM and inactive = higher. Square brackets hold non-standard residues; d marks the D form. Peptide text beside a SMILES is read from it. * marks the point of attachment. ξ: configuration not given here. NMeY = CN[C@@H](Cc1ccc(O)cc1)C(=O)O; Cbz = O=C(OCc1ccccc1)*; ξA = CC(N)C(=O)O

Tests used:
Assay in all cases: DTP human tumour cell line panel, 48 h
[1] = tested on: BT-549
[2] = tested on: DMS-273
[3] = tested on: KM-20L2
[4] = tested on: SNB-78
[5] = tested on: DLD-1
[6] = tested on: HOP-18
[7] = tested on: XF498
[8] = tested on: DMS-114
[9] = tested on: RXF 631

| Compound | GI50 [1] | GI50 [2] | GI50 [3] | GI50 [4] | GI50 [5] | GI50 [6] | GI50 [7] | GI50 [8] | GI50 [9] |
| --- | --- | --- | --- | --- | --- | --- | --- | --- | --- |
| N[C@H](C(=O)O)[C@@H]1CC(Cl)=NO1 [ACIVICIN] | 43 µM (inactive) | 2.33 µM (inactive) | 1.36 µM (inactive) | 4.25 µM (inactive) | 1.23 µM (inactive) | 37.9 µM (inactive) | 23.8 µM (inactive) | 5.53 µM (inactive) | – |
| CCCCCC(=O)N[C@H]1CCc2cc(OC)c(OC)c(OC)c2-c2ccc(SC)c(=O)cc21 | – | – | 0.0154 µM (active) | 0.00419 µM (active) | < 0.01 µM (active) | – | 0.0239 µM (active) | < 0.01 µM (active) | – |
| CC(=O)O[C@H]1CC[C@@]2(C)C(=CC[C@@H]3C2CC[C@]2(C)Nc4nc5ccccc5cc4CC32)C1 (stereo not given in full) | – | 4.82 µM (inactive) | 1.77 µM (inactive) | 6.01 µM (inactive) | 3.72 µM (inactive) | 3.94 µM (inactive) | 5.89 µM (inactive) | 5.4 µM (inactive) | – |
| CN1C(OCc2ccccc2)c2c(ccc3c2OCO3)C2C=Cc3cc4c(cc3C21)OCO4 (stereo not given) | – | – | 1.59 µM (inactive) | 0.598 µM (active) | 0.434 µM (active) | 1.33 µM (inactive) | – | 0.305 µM (active) | 0.841 µM (active) |
| CC(=O)Nc1ccc(-c2nnc(SCC(=O)Nc3ccc(Cl)cc3)o2)cc1 | – | 14.5 µM (inactive) | 16.4 µM (inactive) | 46.2 µM (inactive) | 10.4 µM (inactive) | 15 µM (inactive) | – | 1.85 µM (inactive) | – |
| COc1ccc(C2S/C(=C\c3ccc(OC)cc3OC)C(=O)N2NC(=O)Cc2ccccc2)cc1 (stereo not given) | – | > 100 µM (inactive) | – | – | > 100 µM (inactive) | > 100 µM (inactive) | – | > 100 µM (inactive) | – |
| COc1ccccc1NC(=O)CC(=O)N1N=C(C)C(/N=N/c2ccc(S(N)(=O)=O)cc2)C1=O (stereo not given) | – | > 100 µM (inactive) | > 100 µM (inactive) | > 100 µM (inactive) | > 100 µM (inactive) | > 100 µM (inactive) | > 100 µM (inactive) | > 100 µM (inactive) | – |
| CN(C)CCONC(=O)C12CC3CC(CC(C3)C1)C2 | – | – | > 100 µM (inactive) | 26.2 µM (inactive) | > 100 µM (inactive) | – | > 100 µM (inactive) | > 100 µM (inactive) | > 100 µM (inactive) |
| O=C(NC(=O)c1cn(CCNCCO)c(=O)[nH]c1=O)OCc1ccccc1 | – | – | – | > 100 µM (inactive) | > 100 µM (inactive) | < 0.01 µM (active) | – | > 100 µM (inactive) | – |
| Cc1[nH]c2ccccc2c1C1CC(=O)NC1=O (stereo not given) | – | > 100 µM (inactive) | > 100 µM (inactive) | > 100 µM (inactive) | > 100 µM (inactive) | – | – | > 100 µM (inactive) | – |
| CCc1cccc(C(C)CC)c1/N=C(/NC(=O)c1ccccc1C(=O)N/C(=N/c1c(CC)cccc1C(C)CC)SC)SC (stereo not given) | – | – | 28.4 µM (inactive) | 21.5 µM (inactive) | 58.5 µM (inactive) | 26.8 µM (inactive) | 48.4 µM (inactive) | – | 51.2 µM (inactive) |
| CCCCC(=O)OCC(=O)[C@]1(O)Cc2c(O)c3c(c(O)c2[C@@H](OC2CC(NC(=O)C(F)(F)F)C(O)C(C)O2)C1)C(=O)c1c(OC)cccc1C3=O (stereo not given in full) | 2.11 µM (inactive) | 0.138 µM (active) | 2.19 µM (inactive) | – | 0.538 µM (active) | – | 0.161 µM (active) | 0.268 µM (active) | 0.682 µM (active) |
| Clc1ccc(OCc2nnc3n2N=C(c2ccc(Br)cc2)CS3)cc1 | – | 29.8 µM (inactive) | – | 21.5 µM (inactive) | > 10 µM (inactive) | – | 4.24 µM (inactive) | 13.1 µM (inactive) | > 10 µM (inactive) |
| O=C1c2c(c(-c3ccccc3)c(-c3ccccc3)c(-c3ccccc3)c2-c2ccccc2)C(=O)N1c1cccc(Br)c1 | – | > 100 µM (inactive) | > 100 µM (inactive) | > 100 µM (inactive) | > 100 µM (inactive) | > 100 µM (inactive) | > 100 µM (inactive) | > 100 µM (inactive) | – |
| CC(C)(c1ccccc1)c1ccc(Oc2ccc3c(c2)-c2nc-3nc3[nH]c(nc4nc(nc5[nH]c(n2)c2ccc(Oc6ccc(C(C)(C)c7ccccc7)cc6)cc52)-c2cc(Oc5ccc(C(C)(C)c6ccccc6)cc5)ccc2-4)c2ccc(Oc4ccc(C(C)(C)c5ccccc5)cc4)cc32)cc1 | – | > 100 µM (inactive) | > 100 µM (inactive) | > 100 µM (inactive) | > 100 µM (inactive) | – | 78 µM (inactive) | – | > 100 µM (inactive) |
| C=CCO[C@H]1CC[C@@]2(C)C(CC[C@]3(C)C2CC=C2[C@@H]4[C@@H](C)C(C)CC[C@]4(C(=O)O)CCC23C)C1(C)C (stereo not given in full) | – | – | 17.3 µM (inactive) | 17.6 µM (inactive) | 17.3 µM (inactive) | 22 µM (inactive) | 7.1 µM (inactive) | 16.7 µM (inactive) | 13.7 µM (inactive) |

| Compound | GI50 [1] | GI50 [2] | GI50 [3] | GI50 [4] | GI50 [5] | GI50 [6] | GI50 [7] | GI50 [8] | GI50 [9] |
| --- | --- | --- | --- | --- | --- | --- | --- | --- | --- |
| COC(=O)CCC(NC(=S)N/N=C(\C)c1ccccn1)C(=O)OC (stereo not given) | – | – | 32.4 µM (inactive) | – | 43 µM (inactive) | 41.4 µM (inactive) | > 100 µM (inactive) | 20.6 µM (inactive) | 34.1 µM (inactive) |
| C/C(=C\c1ccccc1)C(O)S(=O)(=O)O (stereo not given) | – | > 100 µM (inactive) | > 100 µM (inactive) | – | > 100 µM (inactive) | > 100 µM (inactive) | – | > 100 µM (inactive) | – |
| COc1ccc(OC(=O)CC2Cc3cc(OC)c(OC)c(OC)c3-c3ccc(SC)c(=O)cc32)cc1 (stereo not given) | – | 0.102 µM (active) | 0.169 µM (active) | – | 0.344 µM (active) | – | 0.258 µM (active) | 0.348 µM (active) | 0.281 µM (active) |
| CCOc1ccccc1NC(=O)C(=O)c1c(O)c2ccc(O)cc2oc1=O | – | > 100 µM (inactive) | > 100 µM (inactive) | > 100 µM (inactive) | > 100 µM (inactive) | > 100 µM (inactive) | – | – | > 100 µM (inactive) |
| CCOc1ccc(NCc2cc(OC)c(OC)c(OC)c2)cc1 | 0.125 µM (active) | – | 0.475 µM (active) | – | 1.11 µM (active) | – | – | 0.287 µM (active) | – |
| COC(=O)CC1C2(C)C3=C(C)C(c4ccoc4)CC3OC2C2OC(=O)C3(C)C=CC(=O)C1(C)C23 (stereo not given) | 0.9 µM (active) | – | – | – | – | – | – | – | – |
| O=C(O)Cc1ccc(Nc2nc3cc(C(F)(F)F)ccc3nc2C(=O)O)cc1 | > 100 µM (inactive) | – | – | – | – | – | – | – | – |
| CCCC(C)n1c(C)nc2c1C(=O)c1ccccc1C2=O (stereo not given) | – | 7.24 µM (inactive) | 18.9 µM (inactive) | 21.9 µM (inactive) | 8.43 µM (inactive) | – | 20.8 µM (inactive) | – | – |
| CC(=O)c1csc2c1C(=O)c1ccccc1C2=O | 1.62 µM (inactive) | – | – | – | – | – | – | – | – |
| Nc1nc(O)c(Br)c(-c2cccc([N+](=O)[O-])c2)n1 | 38.6 µM (inactive) | – | – | – | – | – | – | – | – |
| COc1ccc(C[C@@H](C(=O)N[C@@H](C)C(N)=O)N(C)C(=O)[C@@H]2CCCN2C(=O)[C@H](CC(C)C)NC(=O)C(C)NC(=O)OCc2ccccc2)cc1 (stereo not given in full) (Cbz-[ξA]LP[NMeY](Me)A-NH2) | > 100 µM (inactive) | – | – | – | – | – | – | – | – |
| COc1ccc2c(c1)N=C1CSC(c3cccc(Br)c3)N1C2 (stereo not given) | 12.4 µM (inactive) | – | – | – | – | – | – | – | – |
| CC1=CC(=O)/C(=C/NC(N)=S)C(=O)O1 | > 100 µM (inactive) | – | – | – | – | – | – | – | – |
| NS(=O)(=O)c1ccc(Nc2c3ccccc3nc3c(C(=O)NCCCN(CCO)CCO)cccc23)cc1 | 20.4 µM (inactive) | – | – | – | – | – | – | – | – |
| COc1c(CC(C)=O)ccc2c1C(=O)c1ccc(C=O)c(OC(C)=O)c1C2=O | – | 10.2 µM (inactive) | 14.9 µM (inactive) | 18.2 µM (inactive) | 3.62 µM (inactive) | 22.1 µM (inactive) | – | 12.8 µM (inactive) | 20.6 µM (inactive) |
| O=C(CC(=O)N1N=C(N(c2ccccc2)c2ccccc2)CC1c1ccccc1)Nc1cccc(Cl)c1 (stereo not given) | > 100 µM (inactive) | – | – | – | – | – | – | – | – |
